Test results: patent US10597388B2, “Pyridazinone herbicides” (FMC CORPORATION, priority 2014, dated 2020)

Legend:
Assay in all cases: Test C greenhouse herbicide test, pre- and postemergence
Type in all cases: in vivo
[1] = system: ryegrass, Italian (Italian ryegrass, Lolium multiflorum)
How it was run: (§1)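 Seeds sown in loam–sand blend treated preemergence; plants in peat-based medium sprayed postemergence at 2–18 cm (1- to 4-leaf stage); chemicals in non-phytotoxic solvent with surfactant. Greenhouse 13–15 d, then visual rating versus controls on 0–100 scale (0 no effect, 100 complete control).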

[2] = system: barnyardgrass (Echinochloa crus-galli)
How it was run: as §1

[3] = system: nutsedge, yellow (yellow nutsedge, Cyperus esculentus)
How it was run: as §1

[4] = system: foxtail, giant (giant foxtail, Setaria faberii)
How it was run: as §1

[5] = system: ragweed (common ragweed, Ambrosia elatior)
How it was run: as §1

[6] = system: soybean (Glycine max)
How it was run: as §1

[7] = system: wheat (winter wheat, Triticum aestivum)
How it was run: as §1

[8] = system: velvetleaf (Abutilon theophrasti)
How it was run: as §1

[9] = system: galium (catchweed bedstraw, Galium aparine)
How it was run: as §1

[10] = system: lambsquarters (Chenopodium album)
How it was run: as §1

[11] = system: blackgrass (Alopecurus myosuroides)
How it was run: as §1

[12] = system: corn (Zea mays)
How it was run: as §1

[13] = system: oilseed rape (Brassica napus)
How it was run: as §1

[14] = system: pigweed (Amaranthus retroflexus)
How it was run: as §1

[15] = system: crabgrass, large (large crabgrass, Digitaria sanguinalis)
How it was run: as §1

[16] = Postemergence, 31 g ai/ha, scale 0 to 100 (0 no effect, 100 complete control)
[17] = Postemergence, 62 g ai/ha, 0 to 100 scale (0 no effect, 100 complete control)
[18] = Postemergence, 250 g ai/ha, scale 0 to 100, 0 no effect, 100 complete control, 13 to 15 d
[19] = Preemergence, 31 g ai/ha, scale 0 to 100, 0 is no effect, 100 is complete control
[20] = Preemergence, 62 g ai/ha, scale 0 to 100, 0 is no effect, 100 is complete control
[21] = Preemergence, 125 g ai/ha, scale 0 to 100, 0 is no effect, 100 is complete control
[22] = Preemergence, 250 g ai/ha, scale 0 to 100, 0 no effect, 100 complete control
[23] = postemergence, 125 g ai/ha, scale 0 to 100, 0 no effect, 100 complete control

Q: What does the source list for CCC(=O)Oc1c(C)nn(C)c(=O)c1-c1ccc(Br)c2ccccc12 [Compound 134]?
A: Plant response rating, Ryegrass, Italian [1, 16]: 5; Ryegrass, Italian plant response rating [1, 17]: 15; Plant response rating, Ryegrass, Italian [1, 18]: 40; Plant response rating, Ryegrass, Italian [1, 19]: 98; Plant response rating, Ryegrass, Italian [1, 20]: 100; Plant response rating, Ryegrass, Italian [1, 21]: 100; Ryegrass, Italian plant response rating [1, 22]: 100; Ryegrass, Italian plant response rating [1, 23]: 20; Plant response rating, Barnyardgrass [2, 16]: 10; Barnyardgrass plant response rating [2, 17]: 20; Plant response rating, Barnyardgrass ([2]; Postemergence, 125 g ai/ha, scale 0 to 100, 0 is no effect, 100 is complete control): 40; Plant response rating, Barnyardgrass [2, 18]: 55; Plant response rating, Barnyardgrass [2, 19]: 5; Plant response rating, Barnyardgrass [2, 20]: 40; Plant response rating, Barnyardgrass [2, 21]: 70; Barnyardgrass plant response rating [2, 22]: 90; Plant response rating, Nutsedge, Yellow [3, 16]: 75; Nutsedge, Yellow plant response rating [3, 17]: 80; Plant response rating, Nutsedge, Yellow [3, 18]: 90; Plant response rating, Nutsedge, Yellow [3, 19]: 30; Plant response rating, Nutsedge, Yellow [3, 20]: 45; Plant response rating, Nutsedge, Yellow [3, 21]: 95; Nutsedge, Yellow plant response rating [3, 22]: 90; Nutsedge, Yellow plant response rating [3, 23]: 95; Plant response rating, Foxtail, Giant [4, 16]: 15; Foxtail, Giant plant response rating [4, 17]: 25; Plant response rating, Foxtail, Giant [4, 18]: 45; Plant response rating, Foxtail, Giant [4, 19]: 25; Plant response rating, Foxtail, Giant [4, 20]: 75; Plant response rating, Foxtail, Giant [4, 21]: 70; Foxtail, Giant plant response rating [4, 22]: 80; Foxtail, Giant plant response rating [4, 23]: 35; Plant response rating, Ragweed [5, 16]: 0; Ragweed plant response rating [5, 17]: 5; Plant response rating, Ragweed [5, 18]: 30; Plant response rating, Ragweed [5, 19]: 70; Plant response rating, Ragweed [5, 20]: 95; Plant response rating, Ragweed [5, 21]: 95; Ragweed plant response rating [5, 22]: 98; Ragweed plant response rating [5, 23]: 5; Plant response rating, Soybean [6, 16]: 75; Soybean plant response rating [6, 17]: 70; Plant response rating, Soybean [6, 18]: 85; Plant response rating, Soybean [6, 19]: 40; Plant response rating, Soybean [6, 20]: 45; Plant response rating, Soybean [6, 21]: 65; Soybean plant response rating [6, 22]: 75; Soybean plant response rating [6, 23]: 70; Plant response rating, Wheat [7, 16]: 30; Wheat plant response rating [7, 17]: 50; Plant response rating, Wheat [7, 18]: 90; Plant response rating, Wheat [7, 19]: 0; Plant response rating, Wheat [7, 20]: 0; Plant response rating, Wheat [7, 21]: 15; Wheat plant response rating [7, 22]: 40; Wheat plant response rating [7, 23]: 65; Plant response rating, Velvetleaf [8, 16]: 80; Velvetleaf plant response rating [8, 17]: 90; Plant response rating, Velvetleaf [8, 18]: 100; Plant response rating, Velvetleaf [8, 19]: 75; Plant response rating, Velvetleaf [8, 20]: 90; Plant response rating, Velvetleaf [8, 21]: 90; Velvetleaf plant response rating [8, 22]: 100; Velvetleaf plant response rating [8, 23]: 100; Plant response rating, Galium [9, 16]: 95; Galium plant response rating [9, 17]: 95; Plant response rating, Galium [9, 18]: 100; Plant response rating, Galium [9, 19]: 100; Plant response rating, Galium [9, 20]: 98; Plant response rating, Galium [9, 21]: 98; Galium plant response rating [9, 22]: 98; Galium plant response rating [9, 23]: 100; Plant response rating, Lambsquarters [10, 16]: 100; Lambsquarters plant response rating [10, 17]: 98; Plant response rating, Lambsquarters [10, 18]: 100; Plant response rating, Lambsquarters [10, 19]: 75; Plant response rating, Lambsquarters [10, 20]: 90; Plant response rating, Lambsquarters [10, 21]: 100; Lambsquarters plant response rating [10, 22]: 100; Lambsquarters plant response rating [10, 23]: 100; Plant response rating, Blackgrass [11, 16]: 50; Blackgrass plant response rating [11, 17]: 45; Plant response rating, Blackgrass [11, 18]: 98; Plant response rating, Blackgrass [11, 19]: 20; Plant response rating, Blackgrass [11, 20]: 40; Plant response rating, Blackgrass [11, 21]: 40; Blackgrass plant response rating [11, 22]: 75; Blackgrass plant response rating [11, 23]: 50; Plant response rating, Corn [12, 16]: 5; Corn plant response rating [12, 17]: 10; Plant response rating, Corn [12, 18]: 15; Plant response rating, Corn [12, 19]: 0; Plant response rating, Corn [12, 20]: 0; Plant response rating, Corn [12, 21]: 10; Corn plant response rating [12, 22]: 5; Corn plant response rating [12, 23]: 10; Plant response rating, Oilseed Rape [13, 16]: 95; Oilseed Rape plant response rating [13, 17]: 100; Plant response rating, Oilseed Rape [13, 18]: 100; Plant response rating, Oilseed Rape [13, 19]: 55; Plant response rating, Oilseed Rape [13, 20]: 90; Plant response rating, Oilseed Rape [13, 21]: 90; Oilseed Rape plant response rating [13, 22]: 98; Oilseed Rape plant response rating [13, 23]: 100; Plant response rating, Pigweed [14, 16]: 80; Pigweed plant response rating [14, 17]: 100; Plant response rating, Pigweed [14, 18]: 100; Plant response rating, Pigweed [14, 19]: 75; Plant response rating, Pigweed [14, 20]: 100; Plant response rating, Pigweed [14, 21]: 100; Pigweed plant response rating [14, 22]: 100; Pigweed plant response rating [14, 23]: 100; Plant response rating, Crabgrass, Large [15, 16]: 5; Crabgrass, Large plant response rating [15, 17]: 10; Plant response rating, Crabgrass, Large [15, 18]: 40; Plant response rating, Crabgrass, Large [15, 19]: 5; Plant response rating, Crabgrass, Large [15, 20]: 30; Plant response rating, Crabgrass, Large [15, 21]: 40; Crabgrass, Large plant response rating [15, 22]: 60; Crabgrass, Large plant response rating [15, 23]: 15
